Assay results taken from paper PMC10778626, “Efficacy of Novel Quaternary Ammonium and Phosphonium Salts Differing in Cation Type and Alkyl Chain Length against Antibiotic-Resistant Staphylococcus aureus” (International Journal of Molecular Sciences, 2023).

What was measured:
S. aureus RN4220 = assay: MIC/MBC by broth microdilution, S. aureus RN4220; type: cell-based; conditions: Staphylococcus aureus
Experimental: S. aureus CECT 976, obtained from the Spanish Type Culture Collection, was used as the standard susceptibility testing control strain. This strain has been previously employed in diverse studies to validate the antimicrobial effects of novel molecules. Additional antibiotic-resistant strains, S. aureus XU212, SA1199B, and RN4220, generously provided by S. Gibbons (University College London, London, UK) were tested. […] The SA1199B strain is characterized by its resistance to fluoroquinolones due to the overexpression of the NorA efflux pump and its ciprofloxacin resistance.
(§1) The minimum inhibitory concentration (MIC) and minimum bactericidal concentration (MBC) values of all QHSs were determined by the broth microdilution method, according to the approved M7-A7 (aerobes) standards of the Clinical and Laboratory Standards Institute (CLSI) guidelines. Overnight cell cultures of S. aureus, in the exponential phase of growth, were adjusted to an optical density (OD) of 0.132 ± 0.02 (λ = 600 nm). Then, a volume of 180 µL of the cell suspension was added to sterile, flat, clear-bottomed polystyrene (PS) 96-well microtiter plates (VWR—Radnor, PA, USA), already containing 20 µL of each QHS under study at concentrations ranging from 0.0625 to 64 µg/mL. In the end, the volume of each compound never exceeded 10% (v/v) of the well volume. Microtiter plates were then incubated for 24 h at 37 °C under agitation (150 rpm; INCU-Line IL 150R incubator). Absorbance measurements were performed at the beginning (t = 0 h) and end (t = 24 h) of the incubation period using a microtiter plate absorbance reader (BMG LABTECH FLUOstar Omega). Bacterial suspensions with DMSO and without QHSs were used as negative controls. […] All tests were performed with six replicates and a minimum of three independent repeats.
Plates were incubated at 37 °C for 24 h, and growth was visually inspected. The MBC was determined as the lowest concentration of compound in which the total inhibition of growth on solid medium was observed (no colony forming units (CFUs) were detected). All tests were performed in triplicate, and with a minimum of three independent repeats.

S. aureus CECT 976 [1] = assay: Quantitative suspension test, dose-response against planktonic bacteria; type: cell-based, Staphylococcus aureus; conditions: 30 min exposure; for concentration inducing reductions in S. aureus log CFU/mL > 5 / MBC: S. aureus CECT 976; for MBC: Staphylococcus aureus, CECT976, 0.5 h, 37 °C, distilled water
Experimental: A quantitative suspension test to explore the dose–response relationships of QHSs by evaluating bactericidal activity was performed. For this method, overnight grown cultures were centrifuged (VWR Mega Star 600R) at 3772× g for 10 min and washed twice with phosphate-buffered saline (PBS; 1.44 g/L of […]—Labkem, Barcelona, Spain; 8 g/L of sodium chloride, 0.2 g/L of potassium chloride, and 0.24 g/L of potassium dihydrogen phosphate—VWR, Leuven, Belgium) at pH 7.4. The collected cells were resuspended in PBS and adjusted to an optical density (OD) of 0.132 ± 0.02 (λ = 600 nm). Afterwards, 100 µL of this cell suspension was aseptically transferred to 800 µL of DW and allowed to stand for 2 min. To this mixture, 100 µL of each QHS solution diluted in DMSO at the desired concentration was added. The dose–response evaluation took place for 30 min at 37 °C. In the case of the negative control (untreated cells), the QHS solution was replaced by an equal volume of DMSO or DW. At the end of the contact time, QHS neutralization was performed through the dilution-neutralization method using a universal neutralizer (1 g/L L-histidine (Merck—Tokyo, Japan), 3 g/L lecithin (Alfa Aesar—Karlsruhe, Germany), 5 g/L sodium thiosulphate (Labkem—Barcelona, Spain), 30 g/L saponin (VWR Chemicals—Leuven, Belgium), and 30 g/L polysorbate 80 (VWR Chemicals—Le Havre, France) in 0.0025 M phosphate buffer). For neutralization, the test blend (100 µL) was added to 800 µL sterile aqueous neutralizing solution and 100 µL of DW. The mixture was gently agitated and allowed to stand for 10 min, after which serial dilutions (up to 10^−5) in sterile saline solution (0.85% w/v NaCl) were prepared. Then, 10 µL of each serial dilution was plated into Petri dishes containing PCA by the drop-plating method. The plates were allowed to set, then inverted and placed in an incubator at 37 °C for 24 h. The surviving cells on the QHS neutralized samples were determined by CFU counting on each plate, ensuring the counting of dilution plates that gave between 10 and 100 CFUs. The antibacterial activity was evaluated by quantification of logarithmic reduction (log CFU/mL), according to Equation (2). log CFU/mL reduction = log (X) − log (X0), (2) where X0 and X are the counts of CFU/mL before (untreated control cells) and after quaternary salt exposure, respectively.
The QHS concentrations chosen for conducting the dose–response tests comprise of the MBC, which causes the complete reduction of planktonic cells, as well as lower concentrations. Specifically, compound 1e was evaluated at concentrations of 0.25, 0.5, 0.75, 1, 2, 4, 8, and 16 µg/mL, compound 7e at concentrations of 1, 2, 3.2, 3.5, 4, 8, and 16 µg/mL, compound 5e at concentrations of 0.5, 1, 1.3, 1.6, 2, 4, and 8 µg/mL, and compound 3e at concentrations of 0.5, 0.75, 1, 1.3, 1.6, 2, 4, and 8 µg/mL. In the case of compounds 2e, 6e, and 4e, concentrations tested were 0.5, 1, 1.6, 2, 4, and 8 µg/mL. All tests were performed in duplicate, and with a minimum of three independent repeats.
The Chick–Watson mathematical model, provided in Equation (3), is considered an adequate approach to validate the kinetics of dose–response data. log X/X0 = − Kdis C^n t (3) where X0 and X are the counts of CFU/mL before and after quaternary salt exposure, respectively; Kdis is a killing rate coefficient ((mL.µg^−1)^n.min^−1); C is the quaternary salt concentration (µg.mL^−1); n is the concentration exponent and t is the exposure time (min). The concentration dependence of killing (n) was determined using a toolbox for linear regression in GraphPad Prism (version 8.4.0, GraphPad Software, La Jolla, CA, USA). The quality of the model was evaluated through the regression coefficient (R^2).

S. aureus CECT 976 [2] = assay: MIC/MBC by broth microdilution, S. aureus CECT 976; type: cell-based; conditions: Staphylococcus aureus, CECT976, S. aureus CECT 976, broth microdilution; for MIC: 24 h, 37 °C, read-out: MIC; for MBC: plated on PCA, read-out: MBC
Experimental: as §1
Plates were incubated at 37 °C for 24 h, and growth was visually inspected. […] All tests were performed in triplicate, and with a minimum of three independent repeats.

SMILES | MBC (S. aureus RN4220) [mg/L] | MIC (S. aureus RN4220) [mg/L] | concentration inducing reductions in S. aureus log CFU/mL > 5 (S. aureus CECT 976 [1]) [μg/mL] | MBC (S. aureus CECT 976 [1]) [mg/L] | MIC (S. aureus CECT 976 [2]) [mg/L] | MBC (S. aureus CECT 976 [2]) [mg/L] | maximum log CFU/mL reduction (S. aureus CECT 976 [1]; at 1.3 μg/mL) [log CFU/mL] | maximum log CFU/mL reduction (S. aureus CECT 976 [1]; at 4 μg/mL) [log CFU/mL]
CCCCCCCCCCCCCC[P+](c1ccccc1)(c1ccccc1)c1ccccc1 [Compound 1e, Triphenyl(tetradecyl)phosphonium bromide] | 2 | 1 | 0.7 | 1 | 1 | 16 |  | 
CCCCCCCCCCCCCC[n+]1ccn(C)c1.[Br-] [Compound 2e, 1-Methyl-3-tetradecyl-1H-imidazol-3-ium bromide] | 8 | 4 | 2.8 |  | 1 | 8 |  | 
CCCCCCCCCCCCCC[n+]1ccc2ccccc2c1.[Br-] [Compound 3e, 2-Tetradecylisoquinolin-2-ium bromide] | 4 | 2 | 1.2 | 1.3 | 2 | 8 | 6.0 | 
CCCCCCCCCCCCCC[n+]1ccc(C)cc1.[Br-] [Compound 4e, 4-Methyl-1-tetradecylpyridin-1-ium bromide] | 8 | 4 | 3.5 |  | 2 | 8 |  | 5.9
CCCCCCCCCCCCCC[n+]1cccc2ccccc21.[Br-] [Compound 5e, 1-Tetradecylquinolin-1-ium bromide] | 8 | 2 | 1.2 | 1.3 | 2 | 8 | 6.0 | 
CCCCCCCCCCCCCC[n+]1ccccc1.[Br-] [Compound 6e, 1-Tetradecylpyridin-1-ium bromide] | 8 | 4 | 3.2 |  | 4 | 8 |  | 5.9
